Laboratory results taken from article PMC7795171, “In Silico and In Vitro Analysis of Major Cannabis-Derived Compounds as Fatty Acid Amide Hydrolase Inhibitors” (Molecules, 2020).
Read-outs that look alike come from different tables or passages of the source.

Assays:
rFAAH = target: T1, rFAAH (Rattus norvegicus, UniProt P97612); experiment: FAAH activity assay, rat brain membranes, [14C]AEA hydrolysis; format: biochemical; conditions: for % In Vitro Inhibition (At 100 µm): rFAAH, compound at 100 µm
T1 construct: from tissue; host or cells: rat brain membranes
T1 sequence (P97612 1-579): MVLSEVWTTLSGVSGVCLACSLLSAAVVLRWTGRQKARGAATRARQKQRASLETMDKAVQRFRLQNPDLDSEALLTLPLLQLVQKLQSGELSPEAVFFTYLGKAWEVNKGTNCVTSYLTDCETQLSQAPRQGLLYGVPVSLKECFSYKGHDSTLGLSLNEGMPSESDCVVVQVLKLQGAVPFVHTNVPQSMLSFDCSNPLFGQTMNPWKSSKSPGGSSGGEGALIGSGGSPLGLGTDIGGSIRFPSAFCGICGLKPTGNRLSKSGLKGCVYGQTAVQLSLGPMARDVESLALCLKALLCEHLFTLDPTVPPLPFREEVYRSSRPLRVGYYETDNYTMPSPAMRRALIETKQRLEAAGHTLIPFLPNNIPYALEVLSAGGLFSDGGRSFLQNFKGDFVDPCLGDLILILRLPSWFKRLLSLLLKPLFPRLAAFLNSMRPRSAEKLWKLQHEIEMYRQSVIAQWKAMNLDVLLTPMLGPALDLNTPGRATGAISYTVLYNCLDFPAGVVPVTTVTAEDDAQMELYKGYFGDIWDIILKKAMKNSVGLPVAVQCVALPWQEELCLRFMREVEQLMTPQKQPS
Description: (§1) Rat brains were homogenized in 50 mM Tris-HCl (50 mM, pH 7.4), and were centrifuged sequentially at 800× g and 20,000× g; then, the supernatants were discharged, and rFAAH activity was tested in membrane preparations incubated with 10 µM [^14C]AEA at 37 °C for 15 min (pH = 9.0). The reaction was stopped with a 1:1 (v/v) mixture of chloroform/methanol and the release of [^14C]ethanolamine in the aqueous phase was measured as reported. Purified human FAAH was assayed in the same way as rFAAH.

hFAAH = target: T2, hFAAH (Homo sapiens, UniProt O00519); experiment: FAAH activity assay, purified human FAAH, [14C]AEA hydrolysis; format: biochemical
T2 construct: purchased Cayman Chemical Company
T2 sequence (O00519 1-579): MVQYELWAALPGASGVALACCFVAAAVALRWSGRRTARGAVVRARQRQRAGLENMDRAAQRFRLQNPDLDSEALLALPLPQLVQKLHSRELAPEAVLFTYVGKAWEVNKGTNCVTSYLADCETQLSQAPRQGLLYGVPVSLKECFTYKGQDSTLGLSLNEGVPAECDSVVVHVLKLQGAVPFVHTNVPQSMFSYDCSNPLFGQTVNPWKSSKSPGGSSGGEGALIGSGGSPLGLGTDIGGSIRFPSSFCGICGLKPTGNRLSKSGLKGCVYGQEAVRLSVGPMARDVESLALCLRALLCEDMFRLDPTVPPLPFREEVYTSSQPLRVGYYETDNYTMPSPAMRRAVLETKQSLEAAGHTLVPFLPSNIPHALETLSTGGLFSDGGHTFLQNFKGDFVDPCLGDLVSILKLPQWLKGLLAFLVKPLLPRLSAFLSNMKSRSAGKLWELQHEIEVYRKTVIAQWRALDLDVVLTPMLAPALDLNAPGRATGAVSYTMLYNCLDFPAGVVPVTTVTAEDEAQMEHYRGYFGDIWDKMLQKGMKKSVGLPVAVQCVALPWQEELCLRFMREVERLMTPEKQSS
Description: as §1

TRPA1 channels = test system: TRPA1 channels; set-up: method as in PMID 21726418; conditions: read-out: EC50, agonist of TRPA1 channels; cited from earlier work
FAAH = test system: FAAH; set-up: method as in PMID 21392988; conditions: non-covalent inhibitor co-crystallized in 3QK5; read-out: half-maximal inhibitory concentration (IC50); cited from earlier work
[1] = rat brain membranes, 10 µM [14C]AEA, 37 °C, 15 min, pH 9.0, dose-response 0–100 µM, read-out: IC50 Towards rFAAH
[2] = purified human FAAH, 10 µM [14C]AEA, 37 °C, 15 min, pH 9.0, dose-response 0–100 µM, read-out: IC50 Towards hFAAH

In the case of `C=C1CC/C=C(\C)CC[C@@H]2[C@@H]1CC2(C)C` [BCP, β-caryophyllene], the “% In Vitro Inhibition (At 100 µm)” value (rFAAH) is reported as 18%, the IC50 (rFAAH; [1]) is reported as > 100 µM and the IC50 (hFAAH; [2]) is reported as > 100 µM.

In the case of `CCCCCc1cc(O)c2c(c1)OC(C)(CCC=C(C)C)C=C2` (stereo not shown) [CBC, cannabichromene], the “% In Vitro Inhibition (At 100 µm)” value (rFAAH) is reported as 51%, the IC50 (rFAAH; [1]) is reported as ~100 µM and the IC50 (hFAAH; [2]) is reported as > 100 µM. The EC50 (TRPA1 channels) was 0.09 µM.

In the case of `C=C(C)[C@@H]1CCC(C)=C[C@H]1c1c(O)cc(CCCCC)cc1O` [CBD, cannabidiol, reference compound], the IC50 (hFAAH; [2]) is reported as > 100 µM.

With `CCCCCc1cc(O)c(C/C=C(\C)CCC=C(C)C)c(O)c1` [CBG, cannabigerol] the “% In Vitro Inhibition (At 100 µm)” value (rFAAH) was 53%, the IC50 (rFAAH; [1]) was ~100 µM and the IC50 (hFAAH; [2]) was > 100 µM.

With `CCCCCc1cc(O)c2c(c1)OC(C)(C)c1ccc(C)cc1-2` [CBN, cannabinol] the IC50 (rFAAH) was 60 ± 10 µM, the “% In Vitro Inhibition (At 100 µm)” value (rFAAH) was 65% and the IC50 (hFAAH) was ~100 µM.

For `Cc1c([C@H]2CCCN(c3nccc(-c4cc5ccccc5s4)n3)C2)c2cccnc2n1CC#N` [QK5], the IC50 (FAAH) is given as 0.018 µM.

In the case of `CCCc1cc(O)c2c(c1)OC(C)(C)[C@@H]1CCC(C)=C[C@@H]21` [THCV, Δ^9-tetrahydrocannabivarin], the IC50 (rFAAH) is reported as > 100 µM, the “% In Vitro Inhibition (At 100 µm)” value (rFAAH) is reported as 30% and the IC50 (hFAAH) is reported as > 100 µM.

With `NC(=O)c1cccc(-c2cccc(OC(=O)NC3CCCCC3)c2)c1` [URB597, reference compound] the inhibition at 10 µM (hFAAH; read-out: Inhibition of hFAAH activity compared to controls) was > 99.5%.
